Experimental data reported in patent EP4168130B1, “USE OF INDOLE COMPOUNDS FOR TREATING SIGNS OF SKIN AGING” (Unilever IP Holdings B.V., priority 2020, dated 2021).

Test system: primary adult human dermal fibroblasts (HDFs)
Experiment: High-throughput compound screen for selective elimination of senescent cells (cell viability, Hoechst 33342 / SYTOX Green high content imaging) in early proliferating (EP) and deeply senescent (DS) fibroblasts
Type: cell-based
Set-up: key: senolytic: EP cell viability above the 89% EP threshold and DS cell viability below the 87% DS threshold for at least one concentration of the three serial concentrations; prolifolytic: test compounds which decreased EP cell viability below the 89% EP threshold but did not decrease DS cell viability below 87%; cytotoxic: Test compounds which decreased both EP and DS cell viability below their respective thresholds; non-toxic: test compounds which maintained both EP and DS viability above their respective thresholds
Conditions: three serial concentrations, 48 hours incubation, read-out five days post compound addition, thresholds 89% EP, 87% DS, for at least one concentration
Method: Actinomycin D, a drug widely reported to induce apoptosis in multiple cell types, was optimised for use as a positive 'senolytic control' for the high-throughput compound screen in EP (0.02µM) and DS (0.2µM) HDFs.
In order to perform the high-throughput screen of the test compounds a thorough validation process of the assay was undertaken prior to experimental screening. For both EP and DS HDFs, the following steps were optimised: optimisation of cell seeding densities in 384-well plate format; validation and optimisation of Actinomycin D positive and DMSO-vehicle negative controls; optimisation of high-throughput image acquisition and high content analysis of Hoechst 33342 (ThermoFisher, UK) in combination with SYTOX Green (ThermoFisher, UK) using the INCell 2200 microscope (GE, UK) for cell death phenotypic read-outs; optimisation of liquid handling system protocols; plate uniformity assessments; and a "dry run" of all components in the assay. […]
Following successful high-throughput compound screening of the test compounds in both EP and DS HDFs, a number of post-screen quality control checks were employed prior to hit detection. First, negative and positive control inter- and intra-plate cell number variability was assessed in order to identify potential systemic issues. […]

## O=C(O)Cn1ccc2ccccc21 [1-indoleacetic acid]
  hit classification based on EP and DS cell viability: senolytic
